This assay has as its system Onions cv. Vaquero. The assay can be described thus: Onion yield after seed treatment with insecticidal active substances. Format: in vivo. Conditions: for Yield in % relative to the insecticide-untreated control 1: onion seed cv. Vaquero pretreated with thiram 2 g ai/kg and carbendazim 1 g ai/kg, seed treatment, total application rate 0.18 mg ai/seed (mixture 0.09 + 0.09); for growth-promoting effect with regard to the yield (in words): onion seed treatment, same total application rate. The method, then: Onions cv. Vaquero from the Dutch company Nunhems were pretreated uniformly with the fungicidal active substances thiram (2 g ai/kg) and carbendazim (1 g ai/kg) by customary methods. Thereafter, the seed was treated as follows, using insecticidal active substances: • 1. control, no insecticides • 2. Poncho WS 70 (clothianidin) at 0.18 mg ai/seed • 3. Gaucho WS 70 (imidacloprid) at 0.18 mg ai/seed • 4. clothianidin+imidacloprid at 0.09+0.09 mg ai/seed

Regarding `CN/C(=N\[N+](=O)[O-])NCc1cnc(Cl)s1` [clothianidin], the “Yield in % relative to the insecticide-untreated control 1” value turned out to be 137% and the “growth-promoting effect with regard to the yield (in words)” value is reported as “growth-promoting effect”.
`O=[N+]([O-])/N=C1\NCCN1Cc1ccc(Cl)nc1` [imidacloprid]: the “Yield in % relative to the insecticide-untreated control 1” value is given as 109% and the “growth-promoting effect with regard to the yield (in words)” value is “growth-promoting effect”.
